Test results from patent US12351556B2, “Pyridin-2(1H)one derivatives, their preparation and their use for the treatment of pain” (INSTITUT NATIONAL DE LA SANTE ET DE LA RECHERCHE MEDICALE …, priority 2019, dated 2025).

Legend:
[1] = system: inflammatory MA (face CFA model); assay: Face Complete Freund's Adjuvant (CFA) model of inflammatory mechanical allodynia; assay type: in vivo; settings: rat, 10 mg/kg intra-peritoneally, 30 min before CFA
SmMLCK = SmMLCK (Homo sapiens (Human), UniProt Q15746); assay: ICKP protein kinase panel screening; assay type: biochemical; settings: duplicate assays, read-out: mean % residual activity
Experimental: (§1) FIG. 3 illustrates the human kinome. Compound 69 was evaluated at the International Center For Kinase Profiling (ICKP, Dundee, Scotland) toward a panel of 50 protein kinases that provide a representative sampling of the human kinome. The results were expressed as the mean percentage of residual activity at 10 μM concentration (duplicate assays). Small disks: ≥65%, larger disk: 19%. The black square indicates the kinome region containing protein kinases evaluated in a second screening (FIG. 4, Table 4). The tree was generated using the Kinome Render software, and the illustration reproduced courtesy of Cell Signaling Technology, Inc. (www.cellsignal.com) Chartier et al PeerJ 2013, 1:e126.
(§2) Results are expressed as the mean percentage of residual activity at 10 μM (Table 3) or 1 μM (Table 4). They are illustrated on FIGS. 3 and 4.
(§3) Studies were undertaken to identify the possible biological target(s) of compound 69. The activation in neurons of PK such as PKCγ, ERK or p38 MAPK can contribute to pain hypersensitivity. Therefore, it was decided to screen compound 69 toward a panel of 50 PKs that provide a representative sampling of the human kinome (FIG. 3, Table 3) (Biochem. J. 2007, 408, 297-315). In this panel, p38α MAPK was identified as the privileged target, with 19% of kinase residual activity at 10 μM compound concentration.

TTK = TTK (Homo sapiens (Human), UniProt P33981); assay: ICKP protein kinase panel screening; assay type: biochemical; settings: duplicate assays, read-out: mean % residual activity
Experimental: as §1, §2, §3

IRAK4 = IRAK4 (Homo sapiens (Human), UniProt Q9NWZ3); assay: ICKP protein kinase panel screening; assay type: biochemical; settings: duplicate assays, read-out: mean % residual activity
Experimental: as §1, §2, §3

RSK1 = RSK1 (Homo sapiens (Human), UniProt Q15418); assay: ICKP protein kinase panel screening; assay type: biochemical; settings: duplicate assays, read-out: mean % residual activity
Experimental: as §1, §2, §3

S6K1 = S6K1 (Homo sapiens (Human), UniProt P23443); assay: ICKP protein kinase panel screening; assay type: biochemical; settings: duplicate assays, read-out: mean % residual activity
Experimental: as §1, §2, §3

CAMKKb = CAMKKb (Homo sapiens (Human), UniProt Q96RR4); assay: ICKP protein kinase panel screening; assay type: biochemical; settings: duplicate assays, read-out: mean % residual activity
Experimental: as §1, §2, §3

RIPK2 = RIPK2 (Homo sapiens (Human), UniProt O43353); assay: ICKP protein kinase panel screening; assay type: biochemical; settings: duplicate assays, read-out: mean % residual activity
Experimental: as §1, §2, §3

PKBa = PKBa (Homo sapiens (Human), UniProt P31749); assay: ICKP protein kinase panel screening; assay type: biochemical; settings: duplicate assays, read-out: mean % residual activity
Experimental: as §1, §2, §3

TrkA = TrkA (Homo sapiens (Human), UniProt P04629); assay: ICKP protein kinase panel screening; assay type: biochemical; settings: duplicate assays, read-out: mean % residual activity
Experimental: as §1, §2, §3

EPH-A2 = EPH-A2 (Homo sapiens (Human), UniProt P29317); assay: ICKP protein kinase panel screening; assay type: biochemical; settings: duplicate assays, read-out: mean % residual activity
Experimental: as §1, §2, §3

PKD1 = PKD1 (Homo sapiens (Human), UniProt Q15139); assay: ICKP protein kinase panel screening; assay type: biochemical; settings: duplicate assays, read-out: mean % residual activity
Experimental: as §1, §2, §3

SRPK1 = SRPK1 (Homo sapiens (Human), UniProt Q96SB4); assay: ICKP protein kinase panel screening; assay type: biochemical; settings: duplicate assays, read-out: mean % residual activity
Experimental: as §1, §2, §3

PKCa = PKCa (Homo sapiens (Human), UniProt P17252); assay: ICKP protein kinase panel screening; assay type: biochemical; settings: duplicate assays, read-out: mean % residual activity
Experimental: as §1, §2, §3

PRK2 = PRK2 (Homo sapiens (Human), UniProt Q16513); assay: ICKP protein kinase panel screening; assay type: biochemical; settings: duplicate assays, read-out: mean % residual activity
Experimental: as §1, §2, §3

Lck = Lck (Homo sapiens (Human), UniProt P06239); assay: ICKP protein kinase panel screening; assay type: biochemical; settings: duplicate assays, read-out: mean % residual activity
Sequence of Lck (P06239 whole entry): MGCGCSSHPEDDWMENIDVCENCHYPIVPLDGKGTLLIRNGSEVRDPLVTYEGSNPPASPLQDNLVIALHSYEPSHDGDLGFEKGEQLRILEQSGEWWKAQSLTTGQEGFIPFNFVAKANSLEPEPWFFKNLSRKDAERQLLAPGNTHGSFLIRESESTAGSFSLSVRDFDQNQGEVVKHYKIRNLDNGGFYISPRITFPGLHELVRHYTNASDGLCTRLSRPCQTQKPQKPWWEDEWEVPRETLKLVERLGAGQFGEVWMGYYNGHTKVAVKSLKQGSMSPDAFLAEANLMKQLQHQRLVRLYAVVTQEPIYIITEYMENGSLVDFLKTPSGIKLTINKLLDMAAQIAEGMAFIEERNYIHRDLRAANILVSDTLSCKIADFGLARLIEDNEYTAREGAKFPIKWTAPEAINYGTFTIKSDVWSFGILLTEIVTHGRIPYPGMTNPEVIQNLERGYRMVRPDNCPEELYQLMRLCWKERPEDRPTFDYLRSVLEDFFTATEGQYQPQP
Experimental: as §1, §2, §3

VEG-FR = VEG-FR (Homo sapiens (Human), UniProt P17948); assay: ICKP protein kinase panel screening; assay type: biochemical; settings: duplicate assays, read-out: mean % residual activity
Sequence of VEG-FR (P17948 27-1338): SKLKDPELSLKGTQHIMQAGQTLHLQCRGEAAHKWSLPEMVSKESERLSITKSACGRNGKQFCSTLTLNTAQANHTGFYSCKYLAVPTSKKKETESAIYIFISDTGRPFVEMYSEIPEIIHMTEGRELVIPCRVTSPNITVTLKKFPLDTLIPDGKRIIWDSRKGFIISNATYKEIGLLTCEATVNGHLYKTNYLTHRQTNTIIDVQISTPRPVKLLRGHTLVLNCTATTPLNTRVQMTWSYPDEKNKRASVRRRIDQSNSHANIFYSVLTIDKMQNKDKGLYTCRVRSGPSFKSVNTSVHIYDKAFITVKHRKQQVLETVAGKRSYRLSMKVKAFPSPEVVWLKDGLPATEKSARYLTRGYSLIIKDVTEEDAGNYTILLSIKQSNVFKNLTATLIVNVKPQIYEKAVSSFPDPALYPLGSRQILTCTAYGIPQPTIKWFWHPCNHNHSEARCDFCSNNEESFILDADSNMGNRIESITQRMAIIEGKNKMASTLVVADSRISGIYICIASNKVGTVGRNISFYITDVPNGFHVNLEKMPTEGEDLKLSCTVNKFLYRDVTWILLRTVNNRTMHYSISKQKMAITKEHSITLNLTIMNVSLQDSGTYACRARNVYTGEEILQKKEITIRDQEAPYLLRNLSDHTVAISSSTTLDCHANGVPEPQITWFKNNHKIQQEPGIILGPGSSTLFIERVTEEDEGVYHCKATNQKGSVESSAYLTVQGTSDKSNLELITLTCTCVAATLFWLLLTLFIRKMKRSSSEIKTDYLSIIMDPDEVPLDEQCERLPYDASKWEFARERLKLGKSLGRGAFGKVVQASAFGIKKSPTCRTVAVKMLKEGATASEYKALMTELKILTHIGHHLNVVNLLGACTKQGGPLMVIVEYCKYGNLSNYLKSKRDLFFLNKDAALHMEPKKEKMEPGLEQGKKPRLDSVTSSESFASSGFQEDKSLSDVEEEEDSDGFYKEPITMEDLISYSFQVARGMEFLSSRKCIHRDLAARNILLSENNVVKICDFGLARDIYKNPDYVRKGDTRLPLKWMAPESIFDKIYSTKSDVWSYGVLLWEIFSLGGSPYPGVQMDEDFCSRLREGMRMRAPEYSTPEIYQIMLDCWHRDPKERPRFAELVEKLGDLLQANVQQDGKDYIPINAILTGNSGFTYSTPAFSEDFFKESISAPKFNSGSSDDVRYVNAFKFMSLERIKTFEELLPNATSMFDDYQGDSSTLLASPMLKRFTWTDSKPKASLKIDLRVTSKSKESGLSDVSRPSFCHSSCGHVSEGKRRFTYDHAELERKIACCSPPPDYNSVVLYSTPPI
Experimental: as §1, §2, §3

BTK = BTK (Homo sapiens (Human), UniProt Q06187); assay: ICKP protein kinase panel screening; assay type: biochemical; settings: duplicate assays, read-out: mean % residual activity
Sequence of BTK (Q06187 whole entry): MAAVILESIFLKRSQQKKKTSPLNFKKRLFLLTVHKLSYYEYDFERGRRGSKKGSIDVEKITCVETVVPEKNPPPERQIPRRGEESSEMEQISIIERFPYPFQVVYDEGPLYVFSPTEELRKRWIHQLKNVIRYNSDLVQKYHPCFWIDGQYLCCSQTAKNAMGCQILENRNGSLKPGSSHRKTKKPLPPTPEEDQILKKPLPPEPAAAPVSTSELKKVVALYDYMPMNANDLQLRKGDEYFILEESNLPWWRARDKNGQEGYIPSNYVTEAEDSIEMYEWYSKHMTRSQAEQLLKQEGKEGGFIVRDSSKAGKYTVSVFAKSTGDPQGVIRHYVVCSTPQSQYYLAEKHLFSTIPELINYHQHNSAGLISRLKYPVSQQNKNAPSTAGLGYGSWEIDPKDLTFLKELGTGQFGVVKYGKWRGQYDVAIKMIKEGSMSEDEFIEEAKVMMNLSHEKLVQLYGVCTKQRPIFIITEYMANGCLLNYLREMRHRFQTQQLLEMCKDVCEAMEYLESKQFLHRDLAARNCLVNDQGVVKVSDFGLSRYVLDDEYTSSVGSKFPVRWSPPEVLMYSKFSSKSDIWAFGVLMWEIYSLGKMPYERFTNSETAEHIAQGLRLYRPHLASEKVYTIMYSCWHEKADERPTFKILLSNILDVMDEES
Experimental: as §1, §2, §3

GSK3b = GSK3b (Homo sapiens (Human), UniProt P49841); assay: ICKP protein kinase panel screening; assay type: biochemical; settings: duplicate assays, read-out: mean % residual activity
Experimental: as §1, §2, §3

PLK1 = PLK1 (Homo sapiens (Human), UniProt P53350); assay: ICKP protein kinase panel screening; assay type: biochemical; settings: duplicate assays, read-out: mean % residual activity
Experimental: as §1, §2, §3

TBK1 = TBK1 (Homo sapiens (Human), UniProt Q9UHD2); assay: ICKP protein kinase panel screening; assay type: biochemical; settings: duplicate assays, read-out: mean % residual activity
Experimental: as §1, §2, §3

PAK4 = PAK4 (Homo sapiens (Human), UniProt O96013); assay: ICKP protein kinase panel screening; assay type: biochemical; settings: duplicate assays, read-out: mean % residual activity
Experimental: as §1, §2, §3

LKB1 = LKB1 (Homo sapiens (Human), UniProt Q15831); assay: ICKP protein kinase panel screening; assay type: biochemical; settings: duplicate assays, read-out: mean % residual activity
Experimental: as §1, §2, §3

IGF-1R = IGF-1R (Homo sapiens (Human), UniProt P08069); assay: ICKP protein kinase panel screening; assay type: biochemical; settings: duplicate assays, read-out: mean % residual activity
Sequence of IGF-1R (P08069 31-1367): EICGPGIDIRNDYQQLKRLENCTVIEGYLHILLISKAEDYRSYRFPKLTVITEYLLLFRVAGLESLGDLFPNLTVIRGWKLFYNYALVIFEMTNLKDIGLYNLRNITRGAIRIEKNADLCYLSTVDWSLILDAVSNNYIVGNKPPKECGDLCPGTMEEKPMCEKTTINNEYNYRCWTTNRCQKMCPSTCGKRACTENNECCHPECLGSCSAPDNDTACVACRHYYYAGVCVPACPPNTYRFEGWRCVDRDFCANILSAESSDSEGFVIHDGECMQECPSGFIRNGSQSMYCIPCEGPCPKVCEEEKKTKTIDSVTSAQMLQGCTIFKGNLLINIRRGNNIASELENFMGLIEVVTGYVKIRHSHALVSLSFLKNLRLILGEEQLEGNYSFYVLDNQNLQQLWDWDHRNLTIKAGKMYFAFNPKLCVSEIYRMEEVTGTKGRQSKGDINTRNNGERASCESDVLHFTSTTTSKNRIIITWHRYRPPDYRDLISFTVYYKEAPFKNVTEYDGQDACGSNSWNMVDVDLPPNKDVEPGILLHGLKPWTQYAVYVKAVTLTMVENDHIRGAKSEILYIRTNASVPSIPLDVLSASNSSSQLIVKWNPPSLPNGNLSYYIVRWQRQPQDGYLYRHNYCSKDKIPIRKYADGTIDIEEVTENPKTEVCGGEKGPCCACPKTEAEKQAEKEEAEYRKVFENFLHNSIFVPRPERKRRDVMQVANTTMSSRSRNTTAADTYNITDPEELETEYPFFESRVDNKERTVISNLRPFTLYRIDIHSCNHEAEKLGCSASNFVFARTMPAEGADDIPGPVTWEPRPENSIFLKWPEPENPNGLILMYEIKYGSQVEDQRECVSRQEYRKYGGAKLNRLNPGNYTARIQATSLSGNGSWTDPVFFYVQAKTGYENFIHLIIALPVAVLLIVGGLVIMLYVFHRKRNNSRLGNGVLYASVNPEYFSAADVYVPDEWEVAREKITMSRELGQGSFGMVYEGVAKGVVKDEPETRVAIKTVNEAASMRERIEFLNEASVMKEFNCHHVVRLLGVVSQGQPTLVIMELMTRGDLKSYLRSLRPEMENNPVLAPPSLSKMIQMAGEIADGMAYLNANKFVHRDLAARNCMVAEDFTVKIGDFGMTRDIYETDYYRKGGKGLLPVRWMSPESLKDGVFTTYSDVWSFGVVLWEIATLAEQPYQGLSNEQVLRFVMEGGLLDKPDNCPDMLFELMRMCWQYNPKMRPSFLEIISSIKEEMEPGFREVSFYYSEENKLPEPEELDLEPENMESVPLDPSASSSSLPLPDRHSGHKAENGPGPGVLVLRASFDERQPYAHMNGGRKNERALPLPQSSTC
Experimental: as §1, §2, §3

TAK1 = TAK1 (Homo sapiens (Human), UniProt O43318); assay: ICKP protein kinase panel screening; assay type: biochemical; settings: duplicate assays, read-out: mean % residual activity
Sequence of TAK1 (O43318 1-303): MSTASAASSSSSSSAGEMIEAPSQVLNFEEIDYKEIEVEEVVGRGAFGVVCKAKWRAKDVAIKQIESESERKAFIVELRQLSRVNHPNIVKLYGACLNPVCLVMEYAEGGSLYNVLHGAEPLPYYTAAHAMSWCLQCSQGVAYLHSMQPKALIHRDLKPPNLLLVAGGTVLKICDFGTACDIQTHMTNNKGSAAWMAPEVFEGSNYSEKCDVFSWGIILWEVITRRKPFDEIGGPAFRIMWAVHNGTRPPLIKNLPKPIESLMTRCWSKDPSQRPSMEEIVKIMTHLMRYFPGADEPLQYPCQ
Sequence of TAK1 (Q15750 437-504 partner): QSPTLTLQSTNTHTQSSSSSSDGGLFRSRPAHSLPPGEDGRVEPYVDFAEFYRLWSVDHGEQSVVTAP
Experimental: as §1, §2, §3

HIPK2 = HIPK2 (Homo sapiens (Human), UniProt Q9H2X6); assay: ICKP protein kinase panel screening; assay type: biochemical; settings: duplicate assays, read-out: mean % residual activity
Experimental: as §1, §2, §3

MARK3 = MARK3 (Homo sapiens (Human), UniProt P27448); assay: ICKP protein kinase panel screening; assay type: biochemical; settings: duplicate assays, read-out: mean % residual activity
Experimental: as §1, §2, §3

MST2 = MST2 (Homo sapiens (Human), UniProt Q13188); assay: ICKP protein kinase panel screening; assay type: biochemical; settings: duplicate assays, read-out: mean % residual activity
Experimental: as §1, §2, §3

HER4 = HER4 (Homo sapiens (Human), UniProt Q15303); assay: ICKP protein kinase panel screening; assay type: biochemical; settings: duplicate assays, read-out: mean % residual activity
Experimental: as §1, §2, §3

DYRK1A = DYRK1A (Homo sapiens (Human), UniProt Q13627); assay: ICKP protein kinase panel screening; assay type: biochemical; settings: duplicate assays, read-out: mean % residual activity
Experimental: as §1, §2, §3

Aurora B = Aurora B (Homo sapiens (Human), UniProt Q96GD4); assay: ICKP protein kinase panel screening; assay type: biochemical; settings: duplicate assays, read-out: mean % residual activity
Experimental: as §1, §2, §3

CHK2 = CHK2 (Homo sapiens (Human), UniProt O96017); assay: ICKP protein kinase panel screening; assay type: biochemical; settings: duplicate assays, read-out: mean % residual activity
Sequence of CHK2 (O96017 whole entry): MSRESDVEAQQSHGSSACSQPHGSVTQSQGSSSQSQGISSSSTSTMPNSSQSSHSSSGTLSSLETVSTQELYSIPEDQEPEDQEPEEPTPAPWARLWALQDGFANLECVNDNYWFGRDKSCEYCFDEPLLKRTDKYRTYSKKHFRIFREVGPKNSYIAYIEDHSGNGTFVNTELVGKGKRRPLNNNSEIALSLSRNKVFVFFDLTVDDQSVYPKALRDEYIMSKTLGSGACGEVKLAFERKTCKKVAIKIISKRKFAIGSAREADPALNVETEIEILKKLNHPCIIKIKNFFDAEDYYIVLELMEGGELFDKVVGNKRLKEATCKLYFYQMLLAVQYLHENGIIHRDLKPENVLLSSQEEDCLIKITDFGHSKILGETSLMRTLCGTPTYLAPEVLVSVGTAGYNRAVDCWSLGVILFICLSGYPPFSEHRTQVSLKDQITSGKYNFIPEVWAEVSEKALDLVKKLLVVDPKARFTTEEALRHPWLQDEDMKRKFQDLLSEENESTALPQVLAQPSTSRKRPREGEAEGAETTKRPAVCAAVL
Experimental: as §1, §2, §3

NEK6 = NEK6 (Homo sapiens (Human), UniProt Q9HC98); assay: ICKP protein kinase panel screening; assay type: biochemical; settings: duplicate assays, read-out: mean % residual activity
Sequence of NEK6 (Q9HC98 whole entry): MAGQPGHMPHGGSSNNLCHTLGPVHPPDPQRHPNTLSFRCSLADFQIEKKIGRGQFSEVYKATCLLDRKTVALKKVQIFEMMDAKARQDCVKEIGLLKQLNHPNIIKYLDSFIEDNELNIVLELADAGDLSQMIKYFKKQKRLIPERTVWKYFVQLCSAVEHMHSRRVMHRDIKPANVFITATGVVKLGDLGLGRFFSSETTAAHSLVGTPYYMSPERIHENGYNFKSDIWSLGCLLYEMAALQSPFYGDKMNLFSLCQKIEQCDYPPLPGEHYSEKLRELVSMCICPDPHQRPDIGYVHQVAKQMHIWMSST
Experimental: as §1, §2, §3

SGK1 = SGK1 (Homo sapiens (Human), UniProt O00141); assay: ICKP protein kinase panel screening; assay type: biochemical; settings: duplicate assays, read-out: mean % residual activity
Experimental: as §1, §2, §3

How did the “prevention of inflammatory MA (allodynic score), systemic application” value [1] turn out when `O=c1[nH]cc(Nc2ccccc2)cc1-c1ccccc1Br` [Compound 69, 3-(2-Bromophenyl)-5-(phenylamino)pyridin-2(1H)-one] was run?
Its value is “completely suppressed”.

And the remaining activity at 10 µM (SmMLCK)?
Its remaining activity at 10 µM is 100%.

And the remaining activity at 10 µM (TTK)?
Its remaining activity at 10 µM is 81%.

And the remaining activity at 10 µM (IRAK4)?
The remaining activity at 10 µM was 98%.

And the remaining activity at 10 µM (RSK1)?
Its remaining activity at 10 µM is 94%.

What about the remaining activity at 10 µM (S6K1) of the same compound?
Its remaining activity at 10 µM is 87%.

And the remaining activity at 10 µM (CAMKKb)?
Its remaining activity at 10 µM is 95%.

What about the remaining activity at 10 µM (RIPK2) of the same compound?
Its remaining activity at 10 µM is 90%.

What about the remaining activity at 10 µM (PKBa) of the same compound?
Its remaining activity at 10 µM is 107%.

And the remaining activity at 10 µM (TrkA)?
The remaining activity at 10 µM was 88%.

And the remaining activity at 10 µM (EPH-A2)?
The remaining activity at 10 µM was 109%.

And the remaining activity at 10 µM (PKD1)?
The remaining activity at 10 µM was 92%.

What about the remaining activity at 10 µM (SRPK1) of the same compound?
The remaining activity at 10 µM was 81%.

And the remaining activity at 10 µM (PKCa)?
The remaining activity at 10 µM was 116%.

And the remaining activity at 10 µM (PRK2)?
The remaining activity at 10 µM was 90%.

What about the remaining activity at 10 µM (Lck) of the same compound?
The remaining activity at 10 µM was 108%.

And the remaining activity at 10 µM (VEG-FR)?
Its remaining activity at 10 µM is 94%.

And the remaining activity at 10 µM (BTK)?
The remaining activity at 10 µM was 94%.

And the remaining activity at 10 µM (GSK3b)?
Its remaining activity at 10 µM is 105%.

What about the remaining activity at 10 µM (PLK1) of the same compound?
Its remaining activity at 10 µM is 113%.

And the remaining activity at 10 µM (TBK1)?
The remaining activity at 10 µM was 89%.

And the remaining activity at 10 µM (PAK4)?
Its remaining activity at 10 µM is 89%.

And the remaining activity at 10 µM (LKB1)?
The remaining activity at 10 µM was 83%.

And the remaining activity at 10 µM (IGF-1R)?
The remaining activity at 10 µM was 96%.

And the remaining activity at 10 µM (TAK1)?
The remaining activity at 10 µM was 68%.

And the remaining activity at 10 µM (HIPK2)?
The remaining activity at 10 µM was 96%.

What about the remaining activity at 10 µM (MARK3) of the same compound?
Its remaining activity at 10 µM is 102%.

What about the remaining activity at 10 µM (MST2) of the same compound?
The remaining activity at 10 µM was 91%.

And the remaining activity at 10 µM (HER4)?
Its remaining activity at 10 µM is 98%.

What about the remaining activity at 10 µM (DYRK1A) of the same compound?
Its remaining activity at 10 µM is 66%.

And the remaining activity at 10 µM (Aurora B)?
Its remaining activity at 10 µM is 77%.

What about the remaining activity at 10 µM (CHK2) of the same compound?
The remaining activity at 10 µM was 101%.

And the remaining activity at 10 µM (NEK6)?
The remaining activity at 10 µM was 102%.

And the remaining activity at 10 µM (SGK1)?
Its remaining activity at 10 µM is 89%.
